“And” between values parts separate entries of the source, which are not always exact repeats. Equal entries are not always repeated.
Legend:
[1] = biological target: T1, CRAF-BRAF (Homo sapiens, UniProt P04049+P15056); experiment: control BRET CRAF-BRAF (transient); assay type: cell-based
T1 construct: expressed in transfected cells; host or cells: HEK293T, transient transfection with PEI
Protocol: (§1) We used our cell-based assay to screen a library of 112 983 compounds available in-house at IRIC’s High-Throughput Screening (HTS) platform (see Materials & Methods). Compounds were tested on cells in 384-well plates at concentrations between 10 μM and 25 μM, depending on their concentration in the original stocks solutions. BRET readings were taken 2 hours after treatment. Results obtained show a tight, close to normal distribution centered around zero inhibition relative to DMSO-treated controls (Fig. 1D). Compounds inducing at least 30% BRET inhibition were selected. From these, auto-fluorescent compounds and those that induced more than 90% reduction in RLucII luminescence were removed, leaving 800 primary hits, that we then re-tested using the same assay. In parallel, we tested these compounds in a control BRET assay for an unrelated pair of interacting proteins (BRAF-CRAF[46]) to exclude false-positive compounds that could reduce the BRET signal by interfering with light or by modifying the activity of GFP or Luc.
(§2) For the confirmation screen, the same procedure as for the primary screen was followed, except that HEK293T cells were also seeded at 6.25 millions of cells per simple CellStack on day 1 for transient transfections. These cells were transfected on day 3 with Luc-Map (5 μg) and Plk1-GFP (25 μg) pIRESHyg3 plasmids using polyethylenimine (PEI). To identify false-positives compounds, Luc-CRAF (4 μg) and GFP-BRAF (20 μg) plasmids were also transfected with PEI following the published procedure.

[2] = test system: HeLa cells; experiment: mitotic index assay (phospho-Histone H3) in HeLa cells; assay type: cell-based
[3] = test system: HeLa cells; experiment: mitotic defect phenotypes by immunofluorescence; assay type: cell-based; conditions: 10 μM, 7 h
Protocol: HeLa cells were treated with these compounds along with the known PBD inhibitors PPG, TQ, Poloxin and the KD inhibitor BI2536 as controls, and then stained against α-Tubulin, pericentrin (a centrosome marker) and DNA (Fig. 2D). In all cases, there was a marked increase in the frequency of disorganized spindles compared with DMSO-treated control cells. This is expected as Plk1 plays multiple roles in spindle assembly and maintenance. […] Cpd 69, an analog of compound 122, induced a similar phenotype at lower concentrations (data not shown). This phenotype was not seen after treatment with BI2536.
For the mitotic defect phenotypes, 25 200 HeLa cells were plated on poly-L-lysine coated round cover slips in 24-well plates. The day after, cells were treated for 7 hours, and then washed with PHEM buffer at 37 °C before fixation in PHEM buffer containing 4% formaldehyde for 20 minutes at 37 °C. Cells were washed three times with TBS-tween 0.1% and plate was kept overnight at 4 °C. Next steps were followed as previously described except that coverslips were incubated in a dark wet chamber with antibodies. Anti-pericentrin (diluted 1:1000; Abcam), anti-α-tubulin DM1A (diluted 1:500; Sigma-Aldrich), Alexa Fluor 488 anti-rabbit and Texas-Red anti-mouse (diluted 1:200; Invitrogen) were used. Coverslips were mounted on slide using Vectashield media containing DAPI (Vector Laboratories).
Images shown in Fig. 2D were acquired on an AxioImager microscope (Carl Zeiss) with a 100x oil objective (NA 1.4 DICIII) and an AxioCam HRM camera (Carl Zeiss) using AxioVision software (Carl Zeiss).

[4] = biological target: T2, Plk1-Map interaction (Homo sapiens, UniProt P53350); experiment: LUMIER co-immunoprecipitation assay Plk1-Map
T2 sequence (P53350 whole entry): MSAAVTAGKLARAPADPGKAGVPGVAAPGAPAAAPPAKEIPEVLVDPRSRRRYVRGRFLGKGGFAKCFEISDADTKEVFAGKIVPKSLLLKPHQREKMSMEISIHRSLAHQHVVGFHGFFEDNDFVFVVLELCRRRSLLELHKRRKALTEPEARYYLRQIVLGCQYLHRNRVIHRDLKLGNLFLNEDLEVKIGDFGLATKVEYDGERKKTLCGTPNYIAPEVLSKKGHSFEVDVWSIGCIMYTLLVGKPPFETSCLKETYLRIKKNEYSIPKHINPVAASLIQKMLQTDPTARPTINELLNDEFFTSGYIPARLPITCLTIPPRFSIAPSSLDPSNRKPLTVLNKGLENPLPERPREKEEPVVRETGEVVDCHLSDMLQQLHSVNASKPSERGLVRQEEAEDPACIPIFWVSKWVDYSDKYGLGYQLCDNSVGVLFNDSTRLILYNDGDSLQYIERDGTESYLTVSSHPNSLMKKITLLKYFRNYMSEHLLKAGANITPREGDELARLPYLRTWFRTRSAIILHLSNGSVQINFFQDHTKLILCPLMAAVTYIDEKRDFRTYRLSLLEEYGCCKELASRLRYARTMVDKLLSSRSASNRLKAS

[5] = biological target: GST-PBD367-603 of Plk1 (Homo sapiens, UniProt P53350); experiment: fluorescence polarization assay PBD-phosphopeptide; conditions: 50 μM
Sequence of GST-PBD367-603 of Plk1 (P53350 367-603): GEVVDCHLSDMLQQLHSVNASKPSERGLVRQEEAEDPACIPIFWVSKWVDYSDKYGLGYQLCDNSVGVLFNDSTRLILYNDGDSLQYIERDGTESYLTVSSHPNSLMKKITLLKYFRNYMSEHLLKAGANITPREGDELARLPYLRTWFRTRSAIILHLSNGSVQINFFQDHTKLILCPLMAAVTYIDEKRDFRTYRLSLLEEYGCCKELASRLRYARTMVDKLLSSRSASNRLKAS

[6] = test system: HEK293T cells; experiment: mitotic index assay (phospho-Histone H3) in HEK293T cells
Protocol: For the mitotic index assay, 4000 HeLa cells or 5000 HEK293T cells per well were seeded in a 96-well plate. The day after, cells were incubated for 7 hours with different compounds, and then fixed by adding formaldehyde (4% final concentration) directly to each well. Plates were incubated 20 minutes at 37 °C, and then wells were rinsed three times with TBS-Tween 0.1%. A 1 hour block with PHEM buffer (60 mM Pipes, 25 mM HEPES, 10 mM EGTA, 4 mM MgSO4, pH 6.9) containing 2% BSA and 0.1% triton was performed, before addition of the primary antibody to the wells. The anti-phospho-Histone H3 (Ser10) antibody (EMD Millipore) was diluted 1:300 in PHEM buffer containing 2% BSA and added to the wells for 2 hours at room temperature in the dark. […] Plates were incubated for 1h 30 at room temperature in the dark, and then wells were washed 3 times with TBS-Tween 0.1%. A solution of Mowiol containing DAPI was finally added to the wells. Plates were kept at 4 °C in the dark until imaging using the 20x objective on an Operetta system (Perkin Elmer inc.). The mitotic index, corresponding to the percentage of pHH3 positive cells relative to the total number of DAPI-stained cells detected was calculated by the Operetta using the Harmony 3.5 software. Experiments were done in triplicates.

[7] = biological target: T2, Plk1-Map interaction; experiment: BRET Plk1-Map, stable HEK293T Plk1-Luc/GFP-Map cell line; assay type: cell-based; parameters: cDNAs for the human full length Plk1; expressed in transfected cells
Text: To develop a cell-based assay for the identification of Plk1 interaction inhibitors, we used Bioluminescence Resonance Energy Transfer (BRET)[42][43]. The assay monitors the interaction in HEK293T cells between Plk1 and Map205, a protein that we previously identified as an interactor of Drosophila Polo (Plk1 ortholog) on its PBD[44]. Although no ortholog of Drosophila Map205 has been found in vertebrates, this protein robustly interacts with vertebrate Plk1. […] Importantly, crystallography with zebrafish Plk1 has recently shown that Map205 nevertheless docks in the canonical phosphopeptide binding site of the PBD, with the natural phospho-mimetic Glu314 residue (Fig. 1A)[45]. In our assay, human Plk1 and a fragment of Drosophila Map205 (Map205_254-416 = Map) are respectively fused to Renilla luciferase II (Luc) and GFP10 (GFP), giving rise to energy transfer when the proteins are in close proximity (Fig. 1B). […] All combinations of Plk1 and Map tagged with Luc and GFP were tested (Supplementary Fig. S1). The Plk1-Luc/GFP-Map combination was selected because it yielded the highest BRET dynamic window. We then generated clonal stable cell lines co-expressing these two fusion proteins. These cell lines behaved very similarly to each other in BRET, and we selected one line that gave a high and reproducible BRET signal, with a Z′ score of 0.78, indicative of a robust assay for the purpose of a chemical screen (Supplementary Fig. S1).
as §1
For BRET on transiently transfected cells, 48 hours after the transfection, medium was removed, cells were washed twice with PBS, and then Tyrode solution (140 mM NaCl, 2.7 mM KCl, 12 mM NaHCO3, 5.6 mM D-glucose, 0.49 mM MgCl2, 0.37 mM NaH2PO4, 25 mM HEPES, pH 7.4, where 1 mM CaCl2 was freshly added) was added to the cells. Total fluorescence was first measured using a FlexStation II microplate reader (Molecular Devices), where the GFP10 was excited at 400 nm and read at 510 nm. Then, cells were treated for 5 minutes with 2.5 μM coelenterazine 400a (Gold Technology) before reading BRET2 using the Mithras LB940 microplate reader (Berthold Technologies). BRET2 signal corresponds to the light emitted by the GFP10 acceptor constructs (515 nm ± 20 nm) divided by the light emitted by the RlucII donor constructs (400 nm ± 70 nm). Net BRET2 was calculated by subtracting the background BRET ratio of the RLucII plasmid alone from the BRET ratio obtained by the two BRET partners. The Net BRET2 was plotted according to the GFP10/RLucII ratio, which was obtained by dividing the total fluorescence by the RLucII emission.
For the high throughput chemical screen, cells were amplified and frozen as multiple 1 ml aliquots containing 25 millions of stable HEK293T Plk1-Luc/GFP-Map cells to ensure that cells at the same passage number are used during the screen. […] Five days later, cells were counted and re-suspended in Tyrode solution. […]

[8] = biological target: T2, Plk1-Map interaction; experiment: BRET Plk1-Map, transient Luc-Map/Plk1-GFP in HEK293T; assay type: cell-based; parameters: cDNAs for the human full length Plk1; expressed in transfected cells; conditions: confirmation screen
Protocol: as §2

[9] = reaction with amino-protected amino acids (LC-MS); conditions: room temperature
Protocol: Vinyl sulfones are reactive species that can alkylate substrates as a result of a nucleophilic attack on the distal carbon of the vinyl group. To evaluate the potential of Cpd 161 (vinyl sulfone) to react with proteins, we tested its reaction with nucleophilic amino acid side chains groups. […] To test whether Cpd 161 could react covalently with the PBD, we incubated them together and examined the molecular mass of the protein by SDS-PAGE (Fig. 7). […] Consistent with this idea, the extent of the shift depended on the concentration of Cpd 161 used (Fig. 7B) and also on the incubation time (Fig. 7C).
To a stirred solution of electrophile (0.02 mmol) and amino acid (1- 1.5eq) in DMF (0.3 ml) were added a few drops of a diluted aqueous solution of sodium bicarbonate. The reaction was monitored using an Agilent 6120 Quadrupole LC/MS system (Agilent Technologies). In all cases, the molecular ion of the product was observed.

T1 sequence (P04049 whole entry): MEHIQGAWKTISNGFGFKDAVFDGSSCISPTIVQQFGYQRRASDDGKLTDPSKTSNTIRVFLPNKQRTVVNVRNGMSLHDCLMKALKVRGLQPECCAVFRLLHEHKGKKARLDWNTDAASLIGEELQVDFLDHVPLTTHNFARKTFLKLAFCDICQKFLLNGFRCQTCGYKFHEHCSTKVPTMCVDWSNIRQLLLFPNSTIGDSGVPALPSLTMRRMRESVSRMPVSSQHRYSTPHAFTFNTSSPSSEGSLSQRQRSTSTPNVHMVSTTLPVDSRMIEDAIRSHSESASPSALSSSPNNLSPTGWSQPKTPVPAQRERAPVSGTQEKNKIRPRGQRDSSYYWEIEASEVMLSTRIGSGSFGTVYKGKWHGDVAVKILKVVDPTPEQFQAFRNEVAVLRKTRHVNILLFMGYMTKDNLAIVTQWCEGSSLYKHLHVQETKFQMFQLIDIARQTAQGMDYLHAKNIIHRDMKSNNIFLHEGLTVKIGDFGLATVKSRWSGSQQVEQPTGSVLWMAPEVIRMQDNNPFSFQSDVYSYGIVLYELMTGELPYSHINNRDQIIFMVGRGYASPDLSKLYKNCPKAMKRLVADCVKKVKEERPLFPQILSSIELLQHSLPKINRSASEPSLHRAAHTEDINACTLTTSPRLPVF
T1 sequence (P15056 whole entry): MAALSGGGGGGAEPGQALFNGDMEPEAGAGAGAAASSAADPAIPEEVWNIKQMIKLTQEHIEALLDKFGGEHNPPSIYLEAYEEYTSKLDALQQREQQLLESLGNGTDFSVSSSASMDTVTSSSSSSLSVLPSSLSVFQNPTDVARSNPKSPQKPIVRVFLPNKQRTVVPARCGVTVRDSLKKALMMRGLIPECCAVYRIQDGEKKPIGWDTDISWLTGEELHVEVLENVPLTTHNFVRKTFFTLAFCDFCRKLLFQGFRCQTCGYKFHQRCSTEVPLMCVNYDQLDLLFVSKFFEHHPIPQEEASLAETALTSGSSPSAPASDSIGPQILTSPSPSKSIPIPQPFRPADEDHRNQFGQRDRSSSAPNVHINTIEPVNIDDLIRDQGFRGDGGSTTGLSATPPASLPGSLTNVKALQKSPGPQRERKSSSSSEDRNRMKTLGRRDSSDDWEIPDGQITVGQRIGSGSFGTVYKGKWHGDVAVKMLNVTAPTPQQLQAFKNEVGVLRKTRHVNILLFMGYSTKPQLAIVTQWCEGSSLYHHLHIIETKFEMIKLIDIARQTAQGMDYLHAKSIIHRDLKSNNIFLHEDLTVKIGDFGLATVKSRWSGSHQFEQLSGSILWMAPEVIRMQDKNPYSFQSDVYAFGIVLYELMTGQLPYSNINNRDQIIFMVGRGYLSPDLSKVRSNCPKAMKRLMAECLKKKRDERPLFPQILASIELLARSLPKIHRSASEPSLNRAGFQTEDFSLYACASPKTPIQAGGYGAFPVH

With COc1ccc(-c2oc3ccccc3c(=O)c2OS(=O)(=O)c2cc(OC)ccc2OC)cc1 [Cpd 69] the “Primary screen CRAF-BRAF (transient) % Inihibition” value ([1]; 10-25 μM) was 18.32%, the “Primary screen CRAF-BRAF (transient) % Quench RLuc” value ([1]; 10-25 μM) was 72.42% and the “Confirmation CRAF-BRAF (transient) % Inihibition” value ([1]; confirmation screen) was 7.18%. For the same compound, the “Confirmation CRAF-BRAF (transient) % Quench RLuc” value ([1]; confirmation screen) was 67.88%, the “effect on mitotic index, purchased compounds” value (“effect on mitotic index” below) ([2]; 10 μM) was “significant increase” and the “Mitotic index (%)” value ([2]; 10-25 μM, 7 h) was 30.13%. For the same compound, the “2 > pericentrin foci (percentage of cells)” value [3] was 2 ± 2%, the “Disorganized spindles (percentage of cells)” value [3] was 100 ± 0% and the “Average-Beads (mean luminescence)” value ([4]; 10-25 μM, 2 h) was 281,985. The “Co-IP Values relative to top in plate column = 1” value ([4]; 10-25 μM, 2 h) was 0.866, the “effect on the Plk1-Map interaction in co-IP” value ([4]; 10-25 μM, 2 h) was “no effect” and the “Relative Luminescence Unit” value ([4]; mean divided by maximum mean of the compounds) was 0.866. For the same compound, the “Luminescence on beads, duplicate wells” value ([4]; raw data, 10-25 μM, 2 h) was 232,744 and 331,226, the “activity in the FP assay” value [5] was “little or no activity” and the “effect on mitotic index” value ([6]; 1 μM) was “small increase”. The “effect on mitotic index” value ([6]; 10 μM) was “significant increase”, the “Primary screen Plk1-Map (stable) % Inihibition” value ([7]; 10-25 μM, 2 h) was 77.38% and the “Primary screen Plk1-Map (stable) % Quench RLuc” value ([7]; 10-25 μM, 2 h) was 86.93%. The “Confirmation Plk1-Map (stable) % Inihibition” value ([7]; confirmation screen) was 49.85%, the “Confirmation Plk1-Map (stable) % Quench RLuc” value ([7]; confirmation screen) was 91.91% and the “Confirmation Plk1-Map (transient) % Inihibition” value [8] was -0.61%. The “Confirmation Plk1-Map (transient) % Quench RLuc” value [8] was 62.73%.
For CC1=CC(=O)C(C(C)C)=C/C1=N\OC(=O)c1ccccc1C [Poloxin], the mitotic index ([2]; 25 μM) was “around 20%”, the “2 > pericentrin foci (percentage of cells)” value [3] was 27 ± 21% and the “Disorganized spindles (percentage of cells)” value [3] was 61 ± 14%. The “time to completion of reaction with amino-protected histidine” value [9] was “approximately 10 minutes” and the “time to completion of reaction with amino-protected lysine” value [9] was “approximately 10 minutes”.
